In article PMC11587516 (ACS Chemical Neuroscience, 2024):

Key:
[1] = system: SH-SY5Y neuroblastoma cells; test: SH-SY5Y viability, MTS assay, 72 h; type: cell-based, human; settings: 0.1-100 µM
Description: OC(=O)[C@H]1CNCC[C@@H]1S OC(=O)CCCCCCN1C=CN=C1
OC(=O)C1CCNCC1 N[C@]12C[C@H]1[C@@H](CC2)C(O)=O
OC(=O)C1=CCNCC1 N[C@H]1C[C@@H]1CC(O)=O
O[C@@H]1CNCC[C@H]1C(O)=O N[C@@H]1C[C@@H]1CC(O)=O
OC(=O)CCCC1=NC=CN1 N[C@H]1C[C@H]1CC(O)=O
OC(=O)\C=C\C1=NC=CN1 NC[C@H]1C[C@H]1C(O)=O
OC(=O)\C=C\C1=CNC=N1 NC[C@@H]1C[C@@H]1C(O)=O
OC(=O)\C=C\C1=CN=CN1 NC[C@@H]1C[C@H]1C(O)=O
OC(=O)CCC1=CNC=N1 NC[C@H]1C[C@@H]1C(O)=O
OC(=O)CCC1=CN=CN1 NC1=CC=C(C=N1)C(O)=O
OC(=O)CCN1C=CN=C1 NC1=NC=C(C=N1)C(O)=O
OC(=O)CCCC1=NC=CN1 NC(=N)N1CCC(CC1)C(O)=O
S2. IC50 determination at GAT3 stable GAT3-CHO, compound 9
Figure S1. IC 50 determination for compound 9. Data represent one of three independent experiments, each performed in three technical replicates.
S3. […]
The influence of compound 9 on viability of SH-SY5Y neuroblastoma cells was determined using Aqueous Non-Radioactive Cell Proliferation Assay. […] Upon adding MTS and following 2h incubation, cell viability was calculated and […]
The effect of compound 9 on viability and proliferation of SH-SY5Y was determined with CellTiter 96® Aqueous Non-Radioactive Cell Proliferation Assay (MTS, Promega, Madison, WI, USA). […] Next MTS was added in fresh medium and after 2h of incubation the absorbance was measured at 490 nm using a microplate reader EnSpire (PerkinElmer, Waltham, MA USA). All results were shown as mean ± SD calculated from two independent experiments. […]

hGAT2 = target: T1, hGAT2 (Homo sapiens, UniProt Q9NSD5); test: [3H]GABA uptake assay, CHO cells stably expressing hGAT2; type: cell-based
T1 construct: expressed in transfected cells
T1 sequence (Q9NSD5 1-602): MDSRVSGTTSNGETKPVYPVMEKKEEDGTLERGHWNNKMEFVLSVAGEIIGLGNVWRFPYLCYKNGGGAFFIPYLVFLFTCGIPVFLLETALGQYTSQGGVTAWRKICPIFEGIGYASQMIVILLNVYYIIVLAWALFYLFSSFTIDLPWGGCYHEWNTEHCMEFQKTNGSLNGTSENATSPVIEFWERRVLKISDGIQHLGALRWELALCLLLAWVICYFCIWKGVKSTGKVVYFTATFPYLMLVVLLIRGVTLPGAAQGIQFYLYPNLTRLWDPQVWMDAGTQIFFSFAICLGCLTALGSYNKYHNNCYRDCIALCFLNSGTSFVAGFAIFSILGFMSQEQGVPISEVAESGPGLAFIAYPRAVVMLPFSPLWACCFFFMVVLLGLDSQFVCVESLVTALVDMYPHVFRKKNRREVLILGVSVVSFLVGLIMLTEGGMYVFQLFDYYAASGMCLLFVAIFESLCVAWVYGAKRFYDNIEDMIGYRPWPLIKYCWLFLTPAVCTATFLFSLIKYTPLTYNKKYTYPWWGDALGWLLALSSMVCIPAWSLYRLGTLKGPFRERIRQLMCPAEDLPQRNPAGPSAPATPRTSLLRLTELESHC

## NC12CC(C(=O)O)(C1)C2 [Compound 9]
[1]
  impact on SH-SY5Y viability: no impact
hGAT2
  IC50: > 100 µM
hGAT2; CHO, read-out: inhibition of GABA uptake
  inhibition at 100 µM: ~25%
